Among the data in ChEMBL document CHEMBL1144607, “Novel hydroxamic acid-related phosphinates: inhibition of neutral aminopeptidase N (APN)” (Bioorg Med Chem Lett, 2007) are IC50 and Activity values, retold here.

Structures are written as SMILES. pIC50: −log10 of the molar value. Activity calls are given as the source filed them. The calls are words filed in the database; no cut-off is given here.

The target in assay [1] is T1, Aminopeptidase N (Homo sapiens, UniProt P15144). Kind of assay: Inhibition of APN.
Assay [2] has as its target T1, Aminopeptidase N. The assay can be described thus: Inhibition of APN at <300 uM.

T1 sequence (P15144 whole entry): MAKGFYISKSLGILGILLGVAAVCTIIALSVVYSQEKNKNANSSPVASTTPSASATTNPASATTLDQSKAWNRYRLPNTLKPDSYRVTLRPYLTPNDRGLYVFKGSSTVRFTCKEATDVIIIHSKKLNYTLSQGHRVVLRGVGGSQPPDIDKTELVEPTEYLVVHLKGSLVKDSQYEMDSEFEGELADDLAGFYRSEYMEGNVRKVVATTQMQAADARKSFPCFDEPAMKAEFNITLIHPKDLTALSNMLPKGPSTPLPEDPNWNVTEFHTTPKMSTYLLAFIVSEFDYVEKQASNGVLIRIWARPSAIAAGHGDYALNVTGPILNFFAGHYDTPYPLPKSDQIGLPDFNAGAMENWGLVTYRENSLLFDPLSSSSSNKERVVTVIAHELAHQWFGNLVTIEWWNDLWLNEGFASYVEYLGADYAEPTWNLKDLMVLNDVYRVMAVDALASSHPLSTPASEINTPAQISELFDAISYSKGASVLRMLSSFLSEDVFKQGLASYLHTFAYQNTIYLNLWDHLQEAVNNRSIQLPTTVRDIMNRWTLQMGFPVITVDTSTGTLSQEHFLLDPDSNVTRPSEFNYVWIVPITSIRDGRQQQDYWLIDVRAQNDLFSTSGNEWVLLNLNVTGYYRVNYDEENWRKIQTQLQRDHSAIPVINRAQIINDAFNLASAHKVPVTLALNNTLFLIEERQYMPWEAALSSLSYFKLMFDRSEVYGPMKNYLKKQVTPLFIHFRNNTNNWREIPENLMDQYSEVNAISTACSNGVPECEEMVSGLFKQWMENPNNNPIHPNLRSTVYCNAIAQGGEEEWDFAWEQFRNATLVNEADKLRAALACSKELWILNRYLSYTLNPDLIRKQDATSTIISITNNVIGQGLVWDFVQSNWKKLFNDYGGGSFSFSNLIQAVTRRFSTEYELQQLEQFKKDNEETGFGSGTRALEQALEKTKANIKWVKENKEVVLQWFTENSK

`CC(C)CC(N)P(=O)(O)C(C)N` (centres undefined): the pIC50 in assay [1] was 3.81. `CCNC(=O)P(=O)(O)C(N)C(C)C` (centres undefined): in assay [2], the outcome was inactive. As to `CC(C)C(N)P(=O)(O)C(=O)Nc1ccccc1` (centres undefined), the negative-log IC50 (pIC50) in assay [1] is 3.80. Consider `CCCCCNC(=O)P(=O)(O)C(N)Cc1ccccc1` (centres undefined), for which the result in assay [2] was inactive.

As usually defined, the pIC50 is −log10 of the IC50, conventionally taken in molar units. Higher therefore signals a low IC50.
